Assay results from PubChem BioAssay AID248 (DTP/NCI, 2004).
Values joined by “and” are separate entries in the source; they are usually repeats but may differ in a detail not shown here. Identical values can stand only once. Inconclusive results and toxic doses are left out. Rule as the data show it: active = T/C of 150% or more; inactive = T/C below 125%.

System: L1210 leukemia ip in BDF1 mice, survival T/C
Test: NCI In Vivo Anticancer Drug Screen. Data for tumor model L1210 Leukemia (intraperitoneal) in B6D2F1 (BDF1) mice
Conditions: higher = longer survival
Summary of the method: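 Transplantable tumor model; survival measured in treated vs vehicle control mice. Value = treated/control.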

Measured: T/C

CCCCCCCCCCCC[n+]1ccc(C)cc1C
inactive: endpoint: mean survival time, dose: 0.01 mg/kg/injection, schedule: Q01DX015 (ip), vehicle: saline 92 % of control | endpoint: mean survival time, dose: 0.02 mg/kg/injection, schedule: Q01DX015 (ip), vehicle: saline 98 % of control | endpoint: mean survival time, dose: 0.04 mg/kg/injection, schedule: Q01DX015 (ip), vehicle: saline 97 % of control | endpoint: mean survival time, dose: 0.08 mg/kg/injection, schedule: Q01DX015 (ip), vehicle: saline 98 % of control | endpoint: mean survival time, dose: 0.1 mg/kg/injection, schedule: Q01DX009 (ip), vehicle: saline 97 % of control | endpoint: mean survival time, dose: 0.1 mg/kg/injection, schedule: Q04DX003 (ip), vehicle: saline 102 % of control | endpoint: mean survival time, dose: 0.2 mg/kg/injection, schedule: Q01DX009 (ip), vehicle: saline 92 % of control | endpoint: mean survival time, dose: 0.2 mg/kg/injection, schedule: Q04DX003 (ip), vehicle: saline 97 % of control | endpoint: mean survival time, dose: 0.4 mg/kg/injection, schedule: Q01DX009 (ip), vehicle: saline 101 % of control | endpoint: mean survival time, dose: 0.4 mg/kg/injection, schedule: Q04DX003 (ip), vehicle: saline 94 % of control | endpoint: mean survival time, dose: 0.59 mg/kg/injection, schedule: Q01DX009 (ip), vehicle: saline 91 % of control

C[n+]1ccc(Nc2ccc(NC(=O)c3ccc(Nc4cc[n+](C)c5ccc(N)cc45)cc3)cc2)cc1
active: endpoint: mean survival time, dose: 0.5 mg/kg/injection, schedule: Q01DX009 (sc), vehicle: water 151 % of control | endpoint: mean survival time, dose: 1.0 mg/kg/injection, schedule: Q01DX009 (sc), vehicle: Klucel (hydroxypropylcellulose) (HPC) 159 % of control | endpoint: mean survival time, dose: 2.0 mg/kg/injection, schedule: Q01DX009 (ip), vehicle: water 185 % of control and 204 % of control and 235 % of control | endpoint: mean survival time, dose: 2.0 mg/kg/injection, schedule: Q01DX009 (sc), vehicle: water 175 % of control | endpoint: mean survival time, dose: 4.0 mg/kg/injection, schedule: Q01DX009 (ip), vehicle: water 234 % of control and 267 % of control and 272 % of control | endpoint: mean survival time, dose: 4.0 mg/kg/injection, schedule: Q01DX009 (sc), vehicle: Klucel (hydroxypropylcellulose) (HPC) 200 % of control | endpoint: mean survival time, dose: 4.0 mg/kg/injection, schedule: Q01DX009 (sc), vehicle: water 205 % of control and 224 % of control | endpoint: mean survival time, dose: 8.0 mg/kg/injection, schedule: Q01DX009 (ip), vehicle: Klucel (hydroxypropylcellulose) (HPC) 215 % of control | endpoint: mean survival time, dose: 8.0 mg/kg/injection, schedule: Q01DX009 (ip), vehicle: water 175 % of control and 211 % of control and 252 % of control | endpoint: mean survival time, dose: 8.0 mg/kg/injection, schedule: Q01DX009 (sc), vehicle: water 190 % of control and 222 % of control | endpoint: mean survival time, dose: 12.5 mg/kg/injection, schedule: Q04DX003 (ip), vehicle: saline with Tween-80 247 % of control | endpoint: mean survival time, dose: 12.5 mg/kg/injection, schedule: Q04DX003 (ip), vehicle: saline 257 % of control | endpoint: mean survival time, dose: 16.0 mg/kg/injection, schedule: Q01DX009 (sc), vehicle: Klucel (hydroxypropylcellulose) (HPC) 176 % of control | endpoint: mean survival time, dose: 16.0 mg/kg/injection, schedule: Q01DX009 (sc), vehicle: water 155 % of control and 171 % of control | endpoint: mean survival time, dose: 25.0 mg/kg/injection, schedule: Q04DX003 (ip), vehicle: saline with Tween-80 269 % of control | endpoint: mean survival time, dose: 50.0 mg/kg/injection, schedule: Q04DX003 (ip), vehicle: saline with Tween-80 248 % of control | endpoint: mean survival time, dose: 50.0 mg/kg/injection, schedule: Q04DX003 (ip), vehicle: saline 253 % of control | endpoint: mean survival time, dose: 75.0 mg/kg/injection, schedule: Q04DX003 (ip), vehicle: saline 227 % of control | endpoint: median survival time, dose: 0.5 mg/kg/injection, schedule: Q03HX024 (ip), vehicle: water 150 % of control | endpoint: median survival time, dose: 1.0 mg/kg/injection, schedule: Q03HX016 (ip), vehicle: water 169 % of control | endpoint: median survival time, dose: 1.0 mg/kg/injection, schedule: Q03HX024 (ip), vehicle: water 169 % of control and 186 % of control | endpoint: median survival time, dose: 2.0 mg/kg/injection, schedule: Q01DX005 (ip), vehicle: water 179 % of control | endpoint: median survival time, dose: 2.0 mg/kg/injection, schedule: Q01DX009 (ip), vehicle: water 177 % of control and 224 % of control | endpoint: median survival time, dose: 2.0 mg/kg/injection, schedule: Q01DX009 (sc), vehicle: water 150 % of control | endpoint: median survival time, dose: 2.0 mg/kg/injection, schedule: Q03HX008 (ip), vehicle: water 169 % of control | endpoint: median survival time, dose: 2.0 mg/kg/injection, schedule: Q03HX016 (ip), vehicle: water 158 % of control and 213 % of control | endpoint: median survival time, dose: 2.0 mg/kg/injection, schedule: Q03HX024 (ip), vehicle: water 197 % of control | endpoint: median survival time, dose: 4.0 mg/kg/injection, schedule: Q01DX005 (ip), vehicle: water 195 % of control | endpoint: median survival time, dose: 4.0 mg/kg/injection, schedule: Q01DX009 (ip), vehicle: water 231 % of control | endpoint: median survival time, dose: 4.0 mg/kg/injection, schedule: Q01DX009 (sc), vehicle: water 183 % of control and 222 % of control | endpoint: median survival time, dose: 4.0 mg/kg/injection, schedule: Q03HX008 (ip), vehicle: water 202 % of control | endpoint: median survival time, dose: 4.0 mg/kg/injection, schedule: Q03HX016 (ip), vehicle: water 229 % of control and 261 % of control | endpoint: median survival time, dose: 4.0 mg/kg/injection, schedule: Q03HX024 (ip), vehicle: water 201 % of control and 247 % of control | endpoint: median survival time, dose: 8.0 mg/kg/injection, schedule: Q01DX005 (ip), vehicle: water 211 % of control | endpoint: median survival time, dose: 8.0 mg/kg/injection, schedule: Q01DX009 (sc), vehicle: water 178 % of control | endpoint: median survival time, dose: 8.0 mg/kg/injection, schedule: Q04DX003 (ip), vehicle: water 164 % of control | endpoint: median survival time, dose: 8.0 mg/kg/injection, schedule: Q08DX002 (ip), vehicle: water 153 % of control | endpoint: median survival time, dose: 32.0 mg/kg/injection, schedule: Q01DX001 (sc), vehicle: water 165 % of control | endpoint: median survival time, dose: 64.0 mg/kg/injection, schedule: Q01DX001 (sc), vehicle: water 192 % of control and 267 % of control
inactive: endpoint: mean survival time, dose: 0.5 mg/kg/injection, schedule: Q01DX009 (ip), vehicle: water 118 % of control | endpoint: mean survival time, dose: 1.0 mg/kg/injection, schedule: Q01DX009 (ip), vehicle: Klucel (hydroxypropylcellulose) (HPC) 112 % of control | endpoint: mean survival time, dose: 1.0 mg/kg/injection, schedule: Q01DX009 (sc), vehicle: water 110 % of control and 113 % of control | endpoint: mean survival time, dose: 2.0 mg/kg/injection, schedule: Q01DX009 (ip), vehicle: Klucel (hydroxypropylcellulose) (HPC) 107 % of control | endpoint: mean survival time, dose: 4.0 mg/kg/injection, schedule: Q01DX009 (ip), vehicle: Klucel (hydroxypropylcellulose) (HPC) 118 % of control | endpoint: mean survival time, dose: 10.0 mg/kg/injection, schedule: Q01DX009 (oral), vehicle: Klucel (hydroxypropylcellulose) (HPC) 104 % of control | endpoint: mean survival time, dose: 20.0 mg/kg/injection, schedule: Q01DX009 (oral), vehicle: Klucel (hydroxypropylcellulose) (HPC) 105 % of control | endpoint: mean survival time, dose: 40.0 mg/kg/injection, schedule: Q01DX009 (oral), vehicle: Klucel (hydroxypropylcellulose) (HPC) 100 % of control | endpoint: mean survival time, dose: 80.0 mg/kg/injection, schedule: Q01DX009 (oral), vehicle: Klucel (hydroxypropylcellulose) (HPC) 105 % of control | endpoint: mean survival time, dose: 160.0 mg/kg/injection, schedule: Q01DX009 (oral), vehicle: Klucel (hydroxypropylcellulose) (HPC) 101 % of control | endpoint: median survival time, dose: 0.25 mg/kg/injection, schedule: Q03HX008 (ip), vehicle: water 103 % of control and 121 % of control | endpoint: median survival time, dose: 0.25 mg/kg/injection, schedule: Q03HX016 (ip), vehicle: water 107 % of control and 116 % of control | endpoint: median survival time, dose: 0.25 mg/kg/injection, schedule: Q03HX024 (ip), vehicle: water 112 % of control and 116 % of control | endpoint: median survival time, dose: 0.5 mg/kg/injection, schedule: Q01DX005 (ip), vehicle: water 102 % of control and 124 % of control | endpoint: median survival time, dose: 0.5 mg/kg/injection, schedule: Q01DX009 (ip), vehicle: water 112 % of control and 122 % of control | endpoint: median survival time, dose: 0.5 mg/kg/injection, schedule: Q01DX009 (sc), vehicle: water 96 % of control and 100 % of control | endpoint: median survival time, dose: 0.5 mg/kg/injection, schedule: Q03HX008 (ip), vehicle: water 112 % of control | endpoint: median survival time, dose: 0.5 mg/kg/injection, schedule: Q03HX016 (ip), vehicle: water 119 % of control | endpoint: median survival time, dose: 1.0 mg/kg/injection, schedule: Q01DX005 (ip), vehicle: water 117 % of control | endpoint: median survival time, dose: 1.0 mg/kg/injection, schedule: Q01DX009 (sc), vehicle: water 101 % of control and 111 % of control | endpoint: median survival time, dose: 2.0 mg/kg/injection, schedule: Q01DX001 (sc), vehicle: water 97 % of control and 98 % of control | endpoint: median survival time, dose: 2.0 mg/kg/injection, schedule: Q04DX003 (ip), vehicle: water 114 % of control and 121 % of control | endpoint: median survival time, dose: 2.0 mg/kg/injection, schedule: Q08DX002 (ip), vehicle: water 110 % of control and 113 % of control | endpoint: median survival time, dose: 4.0 mg/kg/injection, schedule: Q01DX001 (ip), vehicle: water 110 % of control | endpoint: median survival time, dose: 4.0 mg/kg/injection, schedule: Q01DX001 (sc), vehicle: water 95 % of control and 105 % of control | endpoint: median survival time, dose: 4.0 mg/kg/injection, schedule: Q04DX003 (ip), vehicle: water 124 % of control | endpoint: median survival time, dose: 4.0 mg/kg/injection, schedule: Q08DX002 (ip), vehicle: water 116 % of control and 124 % of control | endpoint: median survival time, dose: 8.0 mg/kg/injection, schedule: Q01DX001 (ip), vehicle: water 121 % of control | endpoint: median survival time, dose: 8.0 mg/kg/injection, schedule: Q01DX001 (sc), vehicle: water 105 % of control and 113 % of control | endpoint: median survival time, dose: 16.0 mg/kg/injection, schedule: Q01DX001 (sc), vehicle: water 105 % of control | endpoint: median survival time, dose: 16.0 mg/kg/injection, schedule: Q01DX009 (sc), vehicle: water 95 % of control
